Results as given in patent US20110092544A1, “FUNGICIDAL PYRIDINES” (E.I. DU PONT DE nemours and company, priority 2008, published 2011).

How the values were obtained:
Assay type in all cases: in vivo
[1] = system: Septoria tritici; experiment: Test C: wheat leaf blotch, preventive spray on wheat seedlings, visual disease rating; settings: for pest or weed control at 40 ppm: Zymoseptoria tritici, 504 h
From the text: (§1) General protocol for preparing test suspensions for Tests A-H: The test compounds were first dissolved in acetone in an amount equal to 3% of the final volume and then suspended at the desired concentration (in ppm) in acetone and purified water (50/50 mix) containing 250 ppm of the surfactant Trem® 014 (polyhydric alcohol esters). The resulting test suspensions were then used in tests A-H. Spraying a 200 ppm test suspension to the point of run-off on the test plants was the equivalent of a rate of 500 g/ha.
The test suspension was sprayed to the point of run-off on wheat seedlings. The following day the seedlings were inoculated with a spore suspension of Septoria tritici (the causal agent of wheat leaf blotch) and incubated in a saturated atmosphere at 20° C. for 48 h, and moved to a growth chamber at 20° C. for 19 additional days, after which time disease ratings were visually made.
(§2) Results for Tests A-H are given in Table A. In the table, a rating of 100 indicates 100% disease control and a rating of 0 indicates no disease control (relative to the controls). A dash (-) indicates no test results. All results are for compounds tested at 200 ppm except where the compound number is followed by “*” which indicates the compound was tested at 40 ppm.

[2] = system: Alternaria solani; experiment: Test E: tomato early blight, preventive spray on tomato seedlings, visual disease rating; settings: for pest or weed control at 40 ppm: Alternaria solani, 168 h
From the text: as §1
(§3) The test suspension was sprayed to the point of run-off on tomato seedlings. The following day the seedlings were inoculated with a spore suspension of Alternaria solani (the causal agent of tomato early blight) and incubated in a saturated atmosphere at 27° C. for 48 h, and then moved to a growth chamber at 20° C. for 5 days, after which time disease ratings were visually made.
as §2

[3] = system: Erysiphe graminis f. sp. tritici; experiment: Test A: wheat powdery mildew, preventive spray on wheat seedlings, visual disease rating; settings: for pest or weed control at 40 ppm: Blumeria graminis, 192 h
From the text: as §1
The test suspension was sprayed to the point of run-off on wheat seedlings. The following day the seedlings were inoculated with a spore dust of Erysiphe graminis f. sp. tritici (the causal agent of wheat powdery mildew) and incubated in a growth chamber at 20° C. for 8 days, after which time disease ratings were visually made.
as §2

[4] = system: Puccinia recondite f. sp. tritici; experiment: Test B: wheat leaf rust, preventive spray on wheat seedlings, visual disease rating; settings: for pest or weed control at 40 ppm: 192 h
From the text: as §1
The test suspension was sprayed to the point of run-off on wheat seedlings. The following day the seedlings were inoculated with a spore suspension of Puccinia recondite f. sp. tritici (the causal agent of wheat leaf rust) and incubated in a saturated atmosphere at 20° C. for 24 h, and then moved to a growth chamber at 20° C. for 7 days, after which time disease ratings were visually made.
as §2

[5] = system: Botrytis cinerea; experiment: Test F: tomato botrytis, preventive spray on tomato seedlings, visual disease rating; settings: for pest or weed control at 40 ppm: Botrytis cinerea, 120 h
From the text: as §1
as §3, with “Botrytis cinerea” for “Alternaria solani”, “botrytis)” for “early blight)”, “in” for “in a”, “20°” for “27°”, “24°” for “20°”, “3 additional” for “5”
as §2

[6] = system: Septoria nodorum; experiment: Test D: wheat glume blotch, preventive spray on wheat seedlings, visual disease rating; settings: for pest or weed control at 40 ppm: Parastagonospora nodorum, 216 h
From the text: as §1
The test suspension was sprayed to the point of run-off on wheat seedlings. The following day the seedlings were inoculated with a spore suspension of Septoria nodorum (the causal agent of wheat glume blotch) and incubated in a saturated atmosphere at 20° C. for 48 h, and then moved to a growth chamber at 20° C. for 7 days, after which time disease ratings were visually made.
as §2

[7] = 40 ppm (compound number followed by *)
[8] = 200 ppm, 100 = 100% disease control, 0 = no control

SMILES	Test C rating (% disease control) [1, 7] [%]	Test E rating (% disease control) [2, 7] [%]	Test A rating (% disease control) [3, 7] [%]	Test B rating (% disease control) [4, 7] [%]	Test F rating (% disease control) [5, 7] [%]	Test D rating (% disease control) [6, 7] [%]	Test C rating (% disease control) [1, 8] [%]	Test E rating (% disease control) [2, 8] [%]	Test A rating (% disease control) [3, 8] [%]	Test B rating (% disease control) [4, 8] [%]	Test F rating (% disease control) [5, 8] [%]	Test D rating (% disease control) [6, 8] [%]	further results
COc1cc(OC)cc(-c2c(-c3cccnc3)cnc(C)c2-c2c(F)cc(F)cc2F)c1 [Compound 128]	100	94	81	99	99	90	–	–	–	–	–	–	–
COc1cc(OC)cc(-c2c(Br)cnc(C)c2-c2c(F)cc(F)cc2F)c1 [Compound 122, 5-bromo-4-(3,5-dimethoxyphenyl)-2-methyl-3-(2,4,6-trifluorophenyl)pyridine]	–	–	–	–	–	–	–	–	–	–	–	–	pest or weed control at 40 ppm [1, 7]: 99%; pest or weed control at 40 ppm [2, 7]: 0%; pest or weed control at 40 ppm [3, 7]: 98%; pest or weed control at 40 ppm [4, 7]: 99%; pest or weed control at 40 ppm [5, 7]: 100%; pest or weed control at 40 ppm [6, 7]: 0%
COc1cc(OC)cc(-c2c(C(C)O)cnc(C)c2-c2c(F)cc(F)cc2F)c1 (stereo not drawn) [Compound 107]	–	–	–	–	–	–	98	100	100	100	99	98	–
COc1cc(OC)cc(-c2c(-c3ccc(F)cc3)cnc(C)c2-c2ccc(F)cc2F)c1 [Compound 95]	–	–	–	–	–	–	96	73	93	99	87	0	–
COc1cc(OC)c(Cl)c(-c2c(C(C)(C)O)cnc(C)c2-c2c(F)cc(F)cc2F)c1 [Compound 119]	98	100	99	100	100	98	–	–	–	–	–	–	–
COc1cc(OC)cc(-c2c(C(C)C)cnc(C)c2-c2c(F)cc(OC)cc2F)c1 [Compound 75]	96	100	99	100	99	99	–	–	–	–	–	–	–
COc1ccc(-c2c(C)ncc(C(C)CO)c2-c2cc(OC)cc(OC)c2)cc1 (stereo not drawn) [Compound 82]	–	–	–	–	–	–	95	98	97	98	98	69	–
COc1cc(OC)cc(-c2c(-c3ccccc3)cnc(C)c2-c2ccccc2F)c1 [Compound 86]	93	31	96	98	92	0	–	–	–	–	–	–	–
COc1cc(OC)cc(-c2c(C(C)(C)O)cnc(C)c2-c2c(F)ccc(F)c2F)c1 [Compound 69]	–	–	–	–	–	–	94	100	99	100	91	86	–
COc1cc(OC)cc(-c2c(C(N)=O)cnc(C)c2-c2c(F)cc(F)cc2F)c1 [Compound 120]	87	47	0	91	79	0	–	–	–	–	–	–	–
COc1cc(OC)cc(-c2c(C(C)=NO)cnc(C)c2-c2c(F)cc(F)cc2F)c1 (single isomer, unassigned) [Compound 114]	99	94	89	99	99	69	–	–	–	–	–	–	–
COc1cc(OC)cc(-c2c(-c3ccc(Cl)nc3)cnc(C)c2-c2c(F)cc(F)cc2F)c1 [Compound 127]	99	0	90	97	99	0	–	–	–	–	–	–	–
C=C(C)c1cnc(C)c(-c2c(F)ccc(F)c2F)c1-c1cc(OC)cc(OC)c1 [Compound 77]	92	99	100	99	84	0	–	–	–	–	–	–	–
COc1cc(OC)cc(-c2c(Cn3ccc(C(F)(F)F)n3)cnc(C)c2-c2c(F)cc(F)cc2F)c1 [Compound 108]	–	–	–	–	–	–	71	0	64	85	87	0	–
Cc1ncc(-c2ccccc2F)c(-c2cc(O)cc(O)c2)c1-c1ccc(F)cc1 [Compound 100]	–	–	–	–	–	–	76	0	76	89	100	0	–
COc1cc(OC)cc(-c2c(C3CCOCC3)cnc(C)c2-c2ccc(F)cc2)c1 [Compound 59]	–	–	–	–	–	–	97	100	79	100	100	92	–
COc1cc(OC)cc(-c2c(-c3c(F)cc(F)cc3F)cnc(Cl)c2-c2c(F)cc(F)cc2F)c1 [Compound 80]	–	–	–	–	–	–	57	64	95	97	0	0	–
COc1cc(OC)c(Cl)c(-c2c(-c3ccccc3F)cnc(C)c2-c2c(F)cc(F)cc2F)c1 [Compound 135, 4-(2-chloro-3,5-dimethoxyphenyl)-5-(2-fluorophenyl)-2-methyl-3-(2,4,6-trifluorophenyl)pyridine]	–	–	–	–	–	–	–	–	–	–	–	–	pest or weed control at 40 ppm [1, 7]: 99%; pest or weed control at 40 ppm [2, 7]: 88%; pest or weed control at 40 ppm [3, 7]: 98%; pest or weed control at 40 ppm [4, 7]: 100%; pest or weed control at 40 ppm [5, 7]: 100%; pest or weed control at 40 ppm [6, 7]: 96%
COc1cc(OC)cc(-c2c(-c3ccc(F)cc3)cnc(C)c2-c2ccccc2F)c1 [Compound 94]	–	–	–	–	–	–	91	0	21	54	98	0	–
COc1cc(OC)cc(-c2c(-c3cnc(OC)nc3OC)cnc(C)c2-c2c(F)cc(F)cc2F)c1 [Compound 131]	0	0	0	9	80	0	–	–	–	–	–	–	–
COc1cc(OC)cc(-c2c(Cn3cccn3)cnc(C)c2-c2c(F)cc(F)cc2F)c1 [Compound 97]	–	–	–	–	–	–	95	100	100	100	99	100	–
